Each structure is given as a SMILES string. In brackets after ≈: the same amount, converted by molar mass.

These results are taken from US8614252B2, “Crystalline solid rasagiline base” (Teva Pharmaceutical Industries Ltd., priority 2006, dated 2013).

For data set [1] the following is noted: pH 11.
The conditions of data set [2]: alcohols, acetone, ethyl acetate, toluene, diethyl ether, dioxane, hexane and n-heptane.
The conditions of data set [3]: low levels of volatiles by KF and TGA.

Regarding `C#CCN[C@@H]1CCc2ccccc21` [rasagiline base, R(+)-N-propargyl-1-aminoindan], the solubility in water in data set [1] stood at 5.5 mg/mL (≈ 32.1 mM). Also, in data set [2], the “solubility in organic solvents” value is on record as “freely soluble”. The hygroscopicity result in data set [3] is “not hygroscopic”.
